Laboratory results published in patent US20150272934A1, “USE OF CSE INHIBITORS FOR THE TREATMENT OF CUTANEOUS INJURIES OR CONDITIONS AND SLEEP-RELATED BREATHING DISORDERS” (SOVA PHARMACEUTICALS, INC., priority 2012, published 2015).

Assays:
[1] = system: hypoxic ventilatory response; test: Dose response to dl-propargylglycine (PAG) in the rat hypoxic ventilatory response (HVR) assay; assay type: in vivo, Sprague Dawley rats; conditions: for Increase in minute ventilation (VE) from normoxia to hypoxia: FiO2 21% to 10%
Procedure: Male Sprague Dawley rats weighing 343±17 g (Mean±SD); weight range 316-381 g, were obtained from Harlan Laboratories and maintained on a 12 hour light:dark cycle (6 am lights on) with food and water ad libitum.
DSI: Rat unrestrained whole body plethysmography chamber (˜8″ diameter plexiglass), ACQ 7700 Acquisition Interface, Validyne DP45 low range differential pressure transducers, Ponemah software.
dl-Propargyl Glycine (PAG) was obtained from Sigma (Cat #P7888; Lot#BCBD1765V) and solubilized in 0.9% NaCl. Drugs were prepared fresh on the day of use.
Test compounds were administered via the intraperitoneal route at a dose volume of 3 mUkg.
(§1) Animals were pre-habituated to the test environment on 3 separate 1-hour periods prior to the test day. Following administration of test compounds animals were placed inside the whole body plethysmography chamber. The animals were allowed to acclimate to the environment for 60 minutes while breathing a 21% O2 balance N2 gas mix. After acclimation, the following gas mix protocol was followed:
(§2) Cycles were designated to be the periods of both normoxia and hypoxia. Each experiment consisted of 3 cycles (or repeated sets) of the HVR to a normoxic-hypoxic shift. The cycles were 30 minutes in duration to allow for serial sampling from baseline and all 4 WBP test chambers. Each sampling period was of 4 minutes duration and was in a varying order but was always preceded by a 4 minute baseline. The sampling periods were calculated to allow for equilibration of the gas mixture in the WBP chamber. Switching of the multiplexer (MUX) line sampler system was achieved through use of a user defined program. The gas mixtures were likewise switched automatically using a user defined custom mix program and the Sable Systems/Alicat Multi Flow Controller utility.
(§3) Analysis of data was performed in GraphPad Prism (v5) using embedded 1-way Analysis of Variance (ANOVA) followed by Dunnett's or Tukey's MCT post hoc testing where appropriate. Dual data sets were analyzed using the Student's t-test. Bartlett's Equal Variance tests were performed on all data sets, however failure of equal variance was not considered to impinge the validity of the test.

[2] = system: deep partial thickness cutaneous burn injury, zone of stasis; test: Comb burn model for cutaneous burn; assay type: in vivo, Sprague-Dawley rats; conditions: for Viability of zones of stasis/interspaces on gross examination (burn progression): L-propargylglycine 100 mg/kg IP Day 0, Compound 1 20 mg/kg PO once daily, 6-day time course, versus control animals; for Blinded photo grading of treated interspaces versus control interspaces: within 48-72 hours, less injured versus worse/the same scale
[3] = system: hypoxic ventilatory response; test: Rat hypoxic ventilatory response (HVR) in sham and carotid sinus nerve (CSN) transection animals; assay type: in vivo, Sprague Dawley rats; conditions: 100 mg/kg L-PAG
Procedure: Male Sprague Dawley rats from Harlan Laboratories weighing 350±31 g (Mean±SD); were maintained on a 12 hour light:dark cycle (6 am lights on) with food and water ad libitum.
L-Propargyl Glycine (L-PAG) was solubilized in saline at 33.3 mg/ml.
Carotid sinus nerve (CSN) transaction—Under appropriate anesthesia the rat's neck is shaved and prepped for surgery with betadine solution. An incision is made in the throat area extending about 2 cm. The underlying musculature is incised to expose the carotid bifurcation on both sides. A silk suture is looped around the proximal external carotid and retracted laterally for control. […] The carotid sinus nerve is transected where it originates on the exposed part of the glossopharyngeal and ascends to the carotid bifurcation.
as §1, with “2” for “3”, “45 minute” for “1-hour”
as §2, with “of 2” for “of 3”
as §3, with “appropriate.” for “appropriate. Dual data sets were analyzed using the Student's t-test.”

[4] = Half-life of L-propargylglycine (statement in dosing rationale)
obstructive sleep apnea = conditions: twelve patients; cited from earlier work

In the case of `C#CCC(N)C(=O)O` (racemic) [PAG, dl-Propargylglycine], the “Increase in minute ventilation (VE) from normoxia to hypoxia” value ([1]; PAG 1 or 3 mg/kg IP) is reported as “not”, the VH2O ([1]; PAG 10, 30 and 100 mg/kg, both normoxic and hypoxic conditions, p<0.05) is reported as “significantly impacted” and the “VE at 10% FiO2” value ([1]; PAG 10, 30 and 100 mg/kg, compared to saline, p<0.05) is reported as “significantly reduced”. For the same molecule, the “Increase in minute ventilation (VE) from normoxia to hypoxia” value ([1]; PAG 10, 30 or 100 mg/kg IP) was “blunted”, the “VE at an FiO2 of 21%” value ([1]; PAG 10 and 100 mg/kg, compared to saline, p<0.05) was “reduced significantly” and the “Slope of the hypoxic ventilatory response (ΔVE, HVR)” value ([1]; PAG 30 and 100 mg/kg IP, p<0.05 versus vehicle) was “significantly reduced”. The “Slope of the hypoxic ventilatory response (ΔVE)” value ([1]; PAG below a dose of 10 mg/kg) was “no effect”, the VO2 ([1]; normoxic conditions, PAG 10 and 100 mg/kg, p<0.05) was “significantly decreased” and the VCO2 ([1]; rat, in vivo) was “no effect”.
With `CN(N)c1nnn[nH]1` [Compound 1, 5-(1-methylhydrazinyl)-1H-tetrazole] the “Viability of zones of stasis/interspaces on gross examination (burn progression)” value [2] was “maintain viability” and the “Blinded photo grading of treated interspaces versus control interspaces” value [2] was “less injured than controls”.
With `C#CC[C@H](N)C(=O)O` [L-propargylglycine] the “Viability of zones of stasis/interspaces on gross examination (burn progression)” value [2] was “maintain viability”, the “Perfusion in zones of stasis/interspace areas (LDI analysis)” value ([2]; over time course, control animals showed a decrease in perfusion) was “perfusion is maintained” and the “Blinded photo grading of treated interspaces versus control interspaces” value [2] was “less injured than controls”. The “HVR (change in slope of minute ventilation)” value ([3]; CSN transection animals) was “did not change”, the “Increase of minute ventilation (VE) when FiO2 changed from 21% to 10%” value ([3]; CSN transection animals) was 22% and the “Increase of minute ventilation (VE) when FiO2 changed from 21% to 10%” value ([3]; sham animals) was 51%. For the same molecule, the “HVR (change in slope of minute ventilation)” value ([3]; sham animals, p<0.05) was “significantly reduced” and the half-life [4] was “very long”.
In the case of `CN1CCN2c3ncccc3Cc3ccccc3C2C1` (stereo not drawn) [mirtazapine], the “decrease in occurrence of apnea episodes” value (obstructive sleep apnea) is listed as 50% and the “decrease in sleep disruptions” value (obstructive sleep apnea) is listed as 28%.
